Tests used:
Human dermal fibroblasts [1] = assay: Experiment 2: influence of C-phycocyanin concentration and UV intensity on cell activity (AlamarBlue); format: cell-based; conditions: UV 0-100 mJ/cm^2, FIG. 3
Protocol: (§1) A cell sample was prepared as follows: 1. Human dermal fibroblasts and human skin keratinocytes purchased from Kurabo Industries Ltd. were used. A cell suspension (1 mL) stored in liquid nitrogen was thawed in a water bath (37° C.) to an extent that small ice pellets remained, and then diluted with 9 mL of warm medium. 2. The diluted suspension was mixed gently and then transferred to a T75 flask and incubated overnight at 37° C. 3. The next day, the medium was replaced with 10 mL of fresh medium. 4. The medium was replaced periodically (once every 2 days for fibroblasts and once every 2 to 3 days for keratinocytes) and cell proliferation was continued. Meanwhile, the cells were observed using a microscope, and it was confirmed that the cells grew in the correct form. 5. After the cells reached about 80% confluence, the cells were passaged. The cells were passaged by washing the cells once with 10 mL of warm PBS, adding 5 mL of warm trypsin to a T75 flask, covering the bottom of the flask with a trypsin solution, followed by aspirating at room temperature for 1 minute. 6. The flask was allowed to stand in an oven at 37° C. for (maximum) 2 minutes for fibroblasts and (maximum) 7 minutes for keratinocytes. The cells were observed using a microscope and confirmed to be small and oval. 7. Thereafter, the side of the T75 flask was lightly tapped to release the cells. […]

Human dermal fibroblasts [2] = assay: Experiment 3: restoration of cell activity decreased by prior UV irradiation (AlamarBlue); format: cell-based; conditions: pre-irradiation 400 mJ/cm^2 without substance, then UV 0-200 mJ/cm^2 through 0.4% or 2% solution; FIG. 5
Protocol: as §1

C-phycocyanin
cell activity (relative fluorescence intensity) on UV irradiation (Human dermal fibroblasts [1]; 0.4% C-phycocyanin solution): the decrease in cell activity was suppressed
cell activity (relative fluorescence intensity) on UV irradiation versus no UV irradiation (Human dermal fibroblasts [1]; 2% C-phycocyanin solution): the cell activity was even increased
cell activity of cells whose activity was once decreased by UV irradiation (Human dermal fibroblasts [2]): cell activity was recovered

— US20250255791A1, “POWDER COSMETIC CONTAINING ULTRAVIOLET WAVELENGTH-CONVERTING SUBSTANCE, AND METHOD FOR PRODUCING SAME” (Shiseido Company, Ltd., priority 2019, published 2025)
